Measured values as given in article PMC8401404 (Molecules, 2021).

Tests used:
[1] = system: poly(dAdT)2 (DNA, polymer) AT; experiment: UV thermal melting at 260 nm; settings: Na+ (sodium cacodylate, I = 0.05 M), pH 7.0, r = [compound]/[polynucleotide phosphate] = 0.3, error ±0.5, per base
[2] = system: poly dA-poly dT (DNA, polymer) A/T; experiment: UV thermal melting at 260 nm; settings: Na+ (sodium cacodylate, I = 0.05 M), pH 7.0, r = [compound]/[polynucleotide phosphate] = 0.3, error ±0.5, per base
NCI-H358 [3] = experiment: BrdU proliferation assay, 2D cell culture; assay type: cell-based, human; settings: Homo sapiens, NCI-H358, 2D, n = 2, read-out: Proliferation Assay IC50 ± SD
Description: (§1) MTS assay gives us information about the number of living cells, in this case, metabolically active cells, whereas the BrdU proliferation assay gives a measure of the cell population in active division phase. Both assays were performed in 2D and 3D assay formats. For the 2D cell assay format, we used classic two-dimensional in vitro assays and as a 3D assay we used a hanging drop proliferation cell assay as previously described. We explored the activity of compounds on three human lung cancer cell lines, A549, HCC827 and NCI-H358. The compound activity was also tested on human lung fibroblast cell line MRC-5. A two-dimensional in vitro viability assay was performed on the MRC-5 cell line to see if tested compounds are cytotoxic on normal cell lines in low concentrations. […] 7.1.
(§2) Test compounds were synthesized by a research group at the Department of Organic Chemistry, Faculty of Chemical Engineering and Technology, University of Zagreb. […] Compounds were diluted 1:3. We transferred 500 nL (for 2D cell culture) or 400 nL (for 3D cell culture) of the compound from a mother plate to test plate by using Mosquito (TTP labtech). DMSO percentage in test concentrations was 0.5–1.0%. Starting concentration of the test compounds and standard compound doxorubicin was 50 µM (2D cell culture) or 100 µM (3D cell culture).
(§3) Cells were grown in 96-well cell star polystyrene plates. We seeded 10,000 cells/well in wells 4 h prior to the treatment with different compounds concentrations and incubated for 72 h. A cell viability assay was performed according to the manufacturer’s instructions, using CellTiter 96 aqueous solution, MTS kit (Promega, Madison, WI, USA). After 0.5–2 h of cell incubation with MTS in 2D cell culture, the plates were read using PE EnVision absorbance at 490 nm.
(§4) Proliferation assay was performed using Cell Proliferation ELISA, BrdU (Sigma, St. Louis, MO, USA). Briefly, 48 h hours after compound addition, 10 µM of BrdU was added to each well and incubated for the following 24 h. After incubation, a single cell suspension was made for 3D cell culture in the new 96-well plate. Plates were centrifuged and supernatants were removed from each plate (for 2D and 3D cell culture) followed by 60 min incubation at 60 °C. The rest of the proliferation assay was performed according to the manufacturer’s instructions.
(§5) Calculation of IC50 data, curves and QC analysis was performed by using Excel tools and GraphPadPrism software (La Jolla, CA, USA), v. […] QC criteria parameters (Z’, S:B, R2, HillSlope) were checked for every IC50 curve.

A549 [4] = experiment: BrdU proliferation assay, 2D cell culture; assay type: cell-based, human; settings: Homo sapiens, A549, 2D, BrdU, n = 2, read-out: Proliferation Assay IC50 ± SD
Description: as §1, §2, §3, §4, §5

HCC827 [5] = experiment: BrdU proliferation assay, 2D cell culture; assay type: cell-based, human; settings: Homo sapiens, HCC827, 2D, BrdU, n = 2, read-out: Proliferation Assay IC50 ± SD
Description: as §1, §2, §3, §4, §5

S. cerevisiae ATCC 7752 = experiment: Broth microdilution testing (CLSI); assay type: cell-based, Saccharomyces cerevisiae; settings: Saccharomyces cerevisiae, ATCC7752; broth microdilution, 16–24h at 37 °C; read-out: MIC S. cerevisiae ATCC 7752
Description: (§6) Broth microdilution testing was performed according to CLSI (Clinical Laboratory Standards Institute) guidelines. MIC (minimal inhibitory concentration) value was defined as the last tested concentration of compound at which there is no visible growth of bacteria. […] Clinical and Laboratory Standards Institute (CLSI) guidelines.

NCI-H358 [6] = experiment: MTS cytotoxicity assay, 2D cell culture; settings: Homo sapiens, NCI-H358, 72 h, read-out: Cytotoxicity Assay IC50 ± SD; NCI-H358 2D
Description: as §1, §2, §3, §5

A549 [7] = experiment: MTS cytotoxicity assay, 2D cell culture; settings: Homo sapiens, A549, 72 h, read-out: Cytotoxicity Assay IC50 ± SD; A549 2D, 72 h, MTS; n = 2
Description: as §1, §2, §3, §5

HCC827 [8] = experiment: MTS cytotoxicity assay, 2D cell culture; settings: Homo sapiens, HCC827, 72 h, read-out: Cytotoxicity Assay IC50 ± SD; HCC827 2D
Description: as §1, §2, §3, §5

NCI-H358 [9] = experiment: BrdU proliferation assay, 3D hanging drop cell culture; assay type: cell-based, human; settings: Homo sapiens, NCI-H358, 3D, n = 2, read-out: Proliferation Assay IC50 ± SD
Description: as §1, §2
(§7) Cells were grown in 96-well Perfecta 3D hanging drop plates 5000 cell/well for 4 days until spheres were formed (and checked under the microscope). After sphere formation cells were treated with compounds followed by 72 h incubation. Cell viability assay was performed according to the manufacturer’s instructions, using CellTiter GLO 3D for 3D cell culture (Promega); cell incubation was 5 min on the shaker followed by 25 min incubation in the dark. Plates were read using PE EnVision luminescence.
as §4, §5

A549 [10] = experiment: as above; assay type: cell-based, human; settings: Homo sapiens, A549, 3D, BrdU, n = 2, read-out: Proliferation Assay IC50 ± SD
Description: as §1, §2, §7, §4, §5

HCC827 [11] = experiment: as above; assay type: cell-based, human; settings: Homo sapiens, HCC827, 3D, BrdU, n = 2, read-out: Proliferation Assay IC50 ± SD
Description: as §1, §2, §7, §4, §5

S. aureus ATCC 29213 = experiment: Broth microdilution testing (CLSI); assay type: cell-based, Staphylococcus aureus; settings: Staphylococcus aureus, ATCC29213, broth microdilution, 16–24h at 37 °C; read-out: MIC S. aureus ATCC 29213
Description: as §6

[12] = MTS cytotoxicity assay, 2D cell culture, normal lung fibroblasts; settings: human, MRC-5 normal lung fibroblasts, 2D culture
Description: as §1, §2, §3, §5

NCI-H358 [13] = experiment: Cytotoxicity (viability) assay, 3D hanging drop cell culture; settings: Homo sapiens, NCI-H358, 72 h, read-out: Cytotoxicity Assay IC50 ± SD; NCI-H358 3D
Description: as §1, §2, §7, §5

A549 [14] = experiment: as above; settings: Homo sapiens, A549, 72 h, read-out: Cytotoxicity Assay IC50 ± SD; A549 3D
Description: as §1, §2, §7, §5

HCC827 [15] = experiment: as above; settings: Homo sapiens, HCC827, 72 h, read-out: Cytotoxicity Assay IC50 ± SD; HCC827 3D
Description: as §1, §2, §7, §5

E. coli ATCC 25922 = experiment: Broth microdilution testing (CLSI); assay type: cell-based, Escherichia coli; settings: Escherichia coli, ATCC25922; broth microdilution, 16–24h at 37 °C; read-out: MIC E. coli ATCC 25922
Description: as §6

poly(dAdT)2 = experiment: Thermal melting experiments; assay type: binding; settings: r = 0.3, pH 7.0, sodium cacodylate buffer I = 0.05 mol dm^−3; error ±0.5 °C
From the text: (§8) The thermal stability of helices is usually affected by the non-covalent binding of small molecules to double-stranded nucleic acids. We determined the ΔTm value (the difference between the Tm value of free polynucleotide and a complex with a small molecule) for complexes of selected compounds with ctDNA and an alternating polynucleotide, poly(dAdT)2. […] Because of this, we determined ΔTm value with non-alternating AT-DNA, poly dA-poly dT as well.

poly dA-poly dT = experiment: Thermal melting experiments; assay type: binding; settings: r = 0.3, pH 7.0, sodium cacodylate buffer I = 0.05 mol dm^−3; error ±0.5 °C
From the text: as §8

[16] = Solubility in water (stock solutions)
ctDNA = experiment: Thermal melting experiments; assay type: binding, calf; settings: r = [compound]/[polynucleotide] = 0.3, pH 7.0, sodium cacodylate buffer I = 0.05 mol dm^−3; error ±0.5 °C
From the text: as §8

Row | IC50 (NCI-H358 [3]) [µM] | IC50 (A549 [4]) [µM] | IC50 (HCC827 [5]) [µM] | MIC (S. cerevisiae ATCC 7752) [µM] | IC50 (NCI-H358 [9]) [µM] | IC50 (A549 [10]) [µM] | IC50 (HCC827 [11]) [µM] | MIC (S. aureus ATCC 29213) [µM] | melting point [°C] | MIC (E. coli ATCC 25922) [µM] | Structure (SMILES) | IC50 (NCI-H358 [6]) [µM] | IC50 (A549 [7]) [µM] | IC50 (HCC827 [8]) [µM] | IC50 at 72 h [12] [µM] | IC50 (NCI-H358 [13]) [µM] | IC50 (A549 [14]) [µM] | IC50 (HCC827 [15]) [µM] | further results
1 | – | – | – | – | – | – | – | – | – | – | CC(C)NC(=N)c1ccc2nc(-c3ccc(-c4ccc([N+](=O)[O-])cc4)o3)sc2c1 | – | – | – | – | – | – | – | ΔTm [1]: 4.8 °C; ΔTm [2]: 5.5 °C
2 | > 50 | > 50 | > 50 | > 100 | > 100 | > 100 | > 100 | > 100 | 276 to 279 | > 100 | N#Cc1ccc2nc(-c3ccc(-c4ccc([N+](=O)[O-])cc4)o3)sc2c1 [Compound 4, 6-Cyano-2-[5-(4-nitrophenyl)furan-2-yl]benzothiazole] | > 50 | > 50 | > 50 | > 50 | > 100 | > 100 | > 100 | –
3 | > 50 | > 50 | > 50 | > 100 | > 100 | > 100 | > 100 | > 100 | 240 to 242 | > 100 | N#C/C(=C\c1ccc(-c2ccc([N+](=O)[O-])cc2)o1)c1nc2ccccc2s1 [Compound 19, (E)-2-(Benzothiazol-2-yl)-3-[5-(4-nitrophenyl)furan-2-yl]acrylonitrile] | > 50 | > 50 | > 50 | > 50 | > 100 | > 100 | > 100 | –
4 | > 50 | > 50 | > 50 | > 100 | > 100 | > 100 | > 100 | > 100 | 235 to 237 | > 100 | N#Cc1ccc2nc(-c3ccc(-c4ccc(Cl)cc4)o3)sc2c1 [Compound 7, 2-[5-(4-Chlorophenyl)furan-2-yl]-6-cyanobenzothiazole] | > 50 | > 50 | > 50 | > 50 | > 100 | > 100 | > 100 | –
5 | > 50 | > 50 | > 50 | > 100 | > 100 | > 100 | > 100 | > 100 | 273 to 274 | > 100 | N#C/C(=C\c1ccc(-c2ccc([N+](=O)[O-])cc2)o1)c1nc2ccccc2[nH]1 [Compound 17, (E)-2-(Benzimidazol-2-yl)-3-[5-(4-nitrophenyl)furan-2-yl]acrylonitrile] | > 50 | > 50 | > 50 | > 50 | > 100 | > 100 | > 100 | –
6 | 14.4 ± 6.46 | 43.9 ± 54.3 | > 50 | > 100 | > 100 | > 100 | 0.16 ± 0.11 | > 100 | 292 to 294 | > 100 | N#C/C(=C\c1ccc(-c2ccc(Cl)cc2)o1)c1nc2ccccc2[nH]1 [Compound 20, (E)-2-(Benzimidazol-2-yl)-3-[5-(4-chlorophenyl)furan-2-yl]acrylonitrile] | 31.1 ± 4.42 | > 50 | 43.5 ± 8.17 | > 50 | > 100 | > 100 | 9.48 ± 1.15 | –
7 | 15.7 ± 0.86 | 22.7 ± 0.54 | > 50 | > 100 | > 100 | > 100 | > 100 | > 100 | 242 to 246 | > 100 | N#Cc1ccc2[nH]c(-c3ccc(-c4ccc(Cl)cc4)o3)nc2c1 [Compound 13, 2-[5-(4-Chlorophenyl)furan-2-yl]-5(6)-cyanobenzimidazole] | > 50 | > 50 | > 50 | > 50 | > 100 | > 100 | > 100 | –

Row | Structure (SMILES) | IC50 (NCI-H358 [3]) [µM] | IC50 (A549 [4]) [µM] | IC50 (HCC827 [5]) [µM] | MIC (S. cerevisiae ATCC 7752) [µM] | IC50 (NCI-H358 [9]) [µM] | IC50 (A549 [10]) [µM] | IC50 (HCC827 [11]) [µM] | MIC (S. aureus ATCC 29213) [µM] | melting point [°C] | MIC (E. coli ATCC 25922) [µM] | IC50 (NCI-H358 [6]) [µM] | IC50 (A549 [7]) [µM] | IC50 (HCC827 [8]) [µM] | IC50 at 72 h [12] [µM] | IC50 (NCI-H358 [13]) [µM] | IC50 (A549 [14]) [µM] | IC50 (HCC827 [15]) [µM] | further results
8 | Cl.O=[N+]([O-])c1ccc(-c2ccc(-c3nc4ccc(C5=NCCN5)cc4s3)o2)cc1 [Compound 6, 6-(4,5-Dihydro-1H-imidazol-2-yl)-2-[5-(4-nitrophenyl)furan-2-yl]benzothiazole hydrochloride] | 1.1 ± 0.001 | 2.27 ± 0.13 | 16.7 ± 9.39 | 1.6 | 2.36 ± 1.17 | 5.52 ± 0.1 | 7.63 ± 5 | > 100 | 287 to 292 | > 100 | 0.85 ± 0.05 | 2.12 ± 0.21 | 5.13 ± 0.97 | 3.11 ± 0.26 | 1.73 ± 0.01 | 4.01 ± 0.95 | 7.02 ± 3.25 | ΔTm poly (dAdT)2 (poly(dAdT)2): 3.6 °C; ΔTm Poly dA-poly dT (poly dA-poly dT): 5.6 °C; ΔTm [1]: 3.6 °C; ΔTm [2]: 5.6 °C; solubility [16]: 1720 µM; ΔTm ctDNA (ctDNA): 3.2 °C
